Measured values from PubChem BioAssay AID328 (DTP/NCI, 2004).
Values joined by “and” are separate entries in the source; they are usually repeats but may differ in a detail not shown here. Equal values may be shown once. Toxic doses and inconclusive results are not listed.

System: BDF1 mice, P388 leukemia ip, median survival T/C
Experiment: NCI In Vivo Anticancer Drug Screen. Data for tumor model P388 Leukemia (intraperitoneal) in B6D2F1 (BDF1) mice
Conditions: endpoint: median survival time, higher = longer survival
How it was run: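 Read-out is survival of treated animals expressed relative to the vehicle group, as a T/C ratio.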

[1] = dose: 50.0 mg/kg/injection, schedule: Q01DX009 (ip), vehicle: saline with Tween-80
[2] = dose: 200.0 mg/kg/injection, schedule: Q01DX009 (ip), vehicle: saline with Tween-80
[3] = dose: 100.0 mg/kg/injection, schedule: Q04DX003 (ip), vehicle: saline with Tween-80
[4] = dose: 200.0 mg/kg/injection, schedule: Q04DX003 (ip), vehicle: saline with Tween-80
[5] = dose: 400.0 mg/kg/injection, schedule: Q04DX003 (ip), vehicle: saline with Tween-80
[6] = dose: 50.0 mg/kg/injection, schedule: Q04DX003 (ip), vehicle: saline with Tween-80

For NC(=O)c1cc(OCc2ccccc2)nc2nc(Cl)nc(N)c12, the T/C [1] was 100 % of control, the T/C (dose: 100.0 mg/kg/injection, schedule: Q01DX009 (ip), vehicle: saline with Tween-80) was 96 % of control and the T/C [2] was 110 % of control.
In the case of CCOC(=O)C(=Cc1c[nH]c2ccccc12)C(=O)OCC, the T/C (dose: 45.0 mg/kg/injection, schedule: Q04DX003 (ip), vehicle: saline with Tween-80) was 109 % of control, the T/C (dose: 65.0 mg/kg/injection, schedule: Q04DX003 (ip), vehicle: saline with Tween-80) was 113 % of control and the T/C [3] was 100 % of control and 105 % of control. The T/C (dose: 150.0 mg/kg/injection, schedule: Q04DX003 (ip), vehicle: saline with Tween-80) was 109 % of control, the T/C [4] was 100 % of control and 118 % of control and the T/C [5] was 90 % of control and 109 % of control.
For O=C(Nc1ccc(F)cc1)Nc1cccc2ccccc12, the T/C (dose: 100.0 mg/kg/injection, schedule: Q01DX001 (ip), vehicle: saline with Tween-80) was 90 % of control, the T/C (dose: 200.0 mg/kg/injection, schedule: Q01DX001 (ip), vehicle: saline with Tween-80) was 90 % of control and the T/C (dose: 400.0 mg/kg/injection, schedule: Q01DX001 (ip), vehicle: saline with Tween-80) was 90 % of control.
For CCCC(=O)OCc1ccc(Cl)cc1Cl, the T/C [3] was 109 % of control and the T/C [5] was 113 % of control.
CCN1C(=O)Nc2ccc(Cl)cc2C1(O)c1ccccc1 (configuration not stated) was tested, and the T/C [1] was 97 % of control and the T/C [2] was 97 % of control.
COc1cccc(C(=O)CC(O)(C(F)(F)F)C(F)(F)F)c1 was tested, and the T/C (dose: 100.0 mg/kg/injection, schedule: Q01DX009 (ip), vehicle: other) was 91 % of control, the T/C (dose: 100.0 mg/kg/injection, schedule: Q04DX003 (ip), vehicle: other) was 100 % of control and the T/C (dose: 200.0 mg/kg/injection, schedule: Q01DX009 (ip), vehicle: other) was 95 % of control. The T/C (dose: 200.0 mg/kg/injection, schedule: Q04DX003 (ip), vehicle: other) was 100 % of control, the T/C (dose: 400.0 mg/kg/injection, schedule: Q01DX009 (ip), vehicle: other) was 104 % of control and the T/C (dose: 400.0 mg/kg/injection, schedule: Q04DX003 (ip), vehicle: other) was 100 % of control.
In the case of CC(=O)Nc1ncnc2n[nH]c(C#N)c12, the T/C (dose: 12.5 mg/kg/injection, schedule: Q04DX003 (ip), vehicle: saline with Tween-80) was 117 % of control, the T/C (dose: 25.0 mg/kg/injection, schedule: Q04DX003 (ip), vehicle: saline with Tween-80) was 95 % of control and the T/C [6] was 104 % of control. The T/C [3] was 106 % of control.
Nc1n[nH]c(=S)n1-c1ccccc1 was tested, and the T/C (dose: 100.0 mg/kg/injection, schedule: Q01DX001 (ip), vehicle: Klucel (hydroxypropylcellulose) (HPC)) was 104 % of control, the T/C (dose: 100.0 mg/kg/injection, schedule: Q01DX009 (ip), vehicle: Klucel (hydroxypropylcellulose) (HPC)) was 95 % of control and the T/C (dose: 200.0 mg/kg/injection, schedule: Q01DX001 (ip), vehicle: Klucel (hydroxypropylcellulose) (HPC)) was 95 % of control. The T/C (dose: 200.0 mg/kg/injection, schedule: Q01DX009 (ip), vehicle: Klucel (hydroxypropylcellulose) (HPC)) was 91 % of control, the T/C (dose: 400.0 mg/kg/injection, schedule: Q01DX001 (ip), vehicle: Klucel (hydroxypropylcellulose) (HPC)) was 90 % of control and the T/C (dose: 400.0 mg/kg/injection, schedule: Q01DX009 (ip), vehicle: Klucel (hydroxypropylcellulose) (HPC)) was 104 % of control.
For NC(CS/C(Cl)=C/Cl)C(=O)O (configuration not stated), the T/C (dose: 1.5 mg/kg/injection, schedule: Q01DX009 (ip), vehicle: saline) was 95 % of control, the T/C (dose: 3.0 mg/kg/injection, schedule: Q01DX009 (ip), vehicle: saline) was 100 % of control and 109 % of control and the T/C (dose: 6.0 mg/kg/injection, schedule: Q01DX009 (ip), vehicle: saline) was 92 % of control and 95 % of control. For the same molecule, the T/C (dose: 7.4 mg/kg/injection, schedule: Q01DX009 (ip), vehicle: saline) was 109 % of control, the T/C (dose: 11.0 mg/kg/injection, schedule: Q01DX009 (ip), vehicle: saline) was 113 % of control and the T/C (dose: 12.0 mg/kg/injection, schedule: Q01DX009 (ip), vehicle: saline) was 90 % of control. For the same molecule, the T/C (dose: 16.0 mg/kg/injection, schedule: Q04DX003 (ip), vehicle: saline) was 120 % of control, the T/C (dose: 17.0 mg/kg/injection, schedule: Q01DX009 (ip), vehicle: saline) was 152 % of control and the T/C (dose: 25.0 mg/kg/injection, schedule: Q04DX003 (ip), vehicle: saline) was 120 % of control. The T/C (dose: 27.0 mg/kg/injection, schedule: Q01DX009 (ip), vehicle: saline) was 168 % of control and the T/C (dose: 35.0 mg/kg/injection, schedule: Q04DX003 (ip), vehicle: saline) was 104 % of control.
With CC1(C(=O)O)CCC2(C)CCC3(C)C(=CC(=O)C4C5(C)CCC(OC6OC(C(=O)O)C(O)C(O)C6OC6OC(C(=O)O)C(O)C(O)C6O)C(C)(C)C5CCC43C)C2C1 (configuration not stated) the T/C (dose: 100.0 mg/kg/injection, schedule: Q04DX003 (ip), vehicle: alcohol) was 104 % of control, the T/C (dose: 200.0 mg/kg/injection, schedule: Q04DX003 (ip), vehicle: alcohol) was 104 % of control and the T/C (dose: 400.0 mg/kg/injection, schedule: Q04DX003 (ip), vehicle: alcohol) was 90 % of control.
For CC1c2ccccc2N(S(=O)(=O)c2ccccc2)C1C (configuration not stated), the T/C (dose: 100.0 mg/kg/injection, schedule: Q01DX009 (ip), vehicle: gum acacia) was 107 % of control, the T/C (dose: 200.0 mg/kg/injection, schedule: Q01DX009 (ip), vehicle: gum acacia) was 92 % of control and the T/C (dose: 400.0 mg/kg/injection, schedule: Q01DX009 (ip), vehicle: gum acacia) was 100 % of control.
For C=C1[C@@H](C)[C@H]2[C@H](Cc3ccccc3)NC(=O)[C@]23OC(=O)/C=C/[C@H](O)CCC[C@@H](C)C/C=C/[C@H]3[C@@H]1O, the T/C (dose: 0.25 mg/kg/injection, schedule: Q01DX005 (ip), vehicle: saline with Tween-80) was 86 % of control, the T/C (dose: 0.5 mg/kg/injection, schedule: Q01DX005 (ip), vehicle: saline with Tween-80) was 100 % of control and the T/C (dose: 1.0 mg/kg/injection, schedule: Q01DX005 (ip), vehicle: saline with Tween-80) was 100 % of control. For the same molecule, the T/C (dose: 1.0 mg/kg/injection, schedule: Q04DX002 (ip), vehicle: saline) was 109 % of control, the T/C (dose: 2.0 mg/kg/injection, schedule: Q01DX005 (ip), vehicle: saline with Tween-80) was 107 % of control and the T/C (dose: 2.0 mg/kg/injection, schedule: Q04DX002 (ip), vehicle: saline) was 109 % of control. For the same molecule, the T/C (dose: 4.0 mg/kg/injection, schedule: Q01DX005 (ip), vehicle: saline with Tween-80) was 115 % of control, the T/C (dose: 8.0 mg/kg/injection, schedule: Q01DX005 (ip), vehicle: saline with Tween-80) was 117 % of control and the T/C (dose: 8.0 mg/kg/injection, schedule: Q04DX002 (ip), vehicle: saline) was 109 % of control. For the same molecule, the T/C (dose: 16.0 mg/kg/injection, schedule: Q04DX002 (ip), vehicle: saline) was 109 % of control and the T/C (dose: 32.0 mg/kg/injection, schedule: Q04DX002 (ip), vehicle: saline) was 100 % of control.
For O=[N+]([O-])c1ccc(N2CC2)c2c1no[n+]2[O-], the T/C (dose: 15.0 mg/kg/injection, schedule: Q04DX003 (ip), vehicle: saline with Tween-80) was 109 % of control.
In the case of O=[N+]([O-])c1ccc(N=Cc2ccccc2)cc1, the T/C (dose: 100.0 mg/kg/injection, schedule: Q04DX003 (ip), vehicle: Klucel (hydroxypropylcellulose) (HPC)) was 100 % of control, the T/C (dose: 200.0 mg/kg/injection, schedule: Q04DX003 (ip), vehicle: Klucel (hydroxypropylcellulose) (HPC)) was 108 % of control and the T/C (dose: 400.0 mg/kg/injection, schedule: Q04DX003 (ip), vehicle: Klucel (hydroxypropylcellulose) (HPC)) was 108 % of control.
CCOC(=O)c1c(NC(=O)CCl)ssc1=S was tested, and the T/C (dose: 0.78 mg/kg/injection, schedule: Q01DX009 (ip), vehicle: saline with Tween-80) was 116 % of control, the T/C (dose: 1.56 mg/kg/injection, schedule: Q01DX009 (ip), vehicle: saline with Tween-80) was 116 % of control and the T/C (dose: 3.12 mg/kg/injection, schedule: Q01DX009 (ip), vehicle: saline with Tween-80) was 116 % of control. The T/C (dose: 6.25 mg/kg/injection, schedule: Q01DX009 (ip), vehicle: saline with Tween-80) was 116 % of control, the T/C (dose: 12.5 mg/kg/injection, schedule: Q01DX009 (ip), vehicle: saline with Tween-80) was 114 % of control and the T/C (dose: 25.0 mg/kg/injection, schedule: Q01DX009 (ip), vehicle: saline with Tween-80) was 109 % of control. The T/C [1] was 111 % of control, the T/C [6] was 102 % of control and the T/C [4] was 100 % of control. The T/C [5] was 116 % of control.
For COC(=O)Nc1nc2ccc(C(=O)c3ccccc3)cc2[nH]1, the T/C (dose: 10.0 mg/kg/injection, schedule: Q04DX003 (ip), vehicle: other) was 106 % of control, the T/C (dose: 30.0 mg/kg/injection, schedule: Q04DX003 (ip), vehicle: saline with Tween-80) was 173 % of control and the T/C (dose: 35.0 mg/kg/injection, schedule: Q04DX003 (ip), vehicle: saline with Tween-80) was 178 % of control.
